Test results published in patent US20250049025A1, “SURFACTANTS FOR USE IN AGRICULTURAL FORMULATIONS” (AdvanSix Resins & Chemicals LLC, priority 2023, published 2025).
Like-named read-outs stand apart in the source and are kept apart here.

Assays:
S. aureus (6538) = test: Minimum inhibitory concentration (MIC) test, serial dilution; type: cell-based, Staphylococcus aureus
From the text: (§1) Surfactants of the present disclosure have been shown in a standard protocol to assess antimicrobial activities called minimum inhibitory concentration (MIC) tests.
(§2) The antimicrobial properties of surfactants were examined using known methods and standard protocols, and various types of microorganisms as treatment targets. More specifically a minimum inhibitory concentration (MIC) test protocol was applied, using serial dilution method, giving concentration-dependent microorganism growth inhibition measurements against gram positive (e.g., Streptococcus mutans, which is anaerobic, and Staphylococcus aureus, which is usually aerobic but can grow also anaerobically), gram negative (e.g., Escherichia coli, which is anaerobic, or Pseudomonas aeruginosa, which is aerobic).
(§3) Bacteria were propagated overnight in a suitable growth medium, which was a Tryptic Soy Broth. Prior to testing, the concentrations of the test organisms were established using a spectrophotometer that can measure optical density. Those bacterial samples were then diluted to about 1E3 to 1E4 CFU/mL. Thereafter, […] of the bacterial cultures thus prepared were inoculated into test wells of a 96-well plate, each containing suitable growth media, which was Tryptic Soy Agar, and once the bacterial cultures were inoculated, these wells were then treated with the test specimen, serially diluted, incubated at a temperature of 37+/−1° C. and relative humidity of not less than 90% for about 24+/−1 hour.
(§4) Test surfactants were prepared into dilution series. All dilutions were conducted serially using a multichannel pipetter into 96-well microtiter plates.
(§5) The MIC was then used to determine the approximate concentration of the test surfactant at which there was inhibition of bacterial growth. […]
(§6) Test measurements were made on replicate 96-well plates, and reported as the rounded whole number average of the determined MIC. […] Measurement variability was then reported based on the determined average in the form of MIC+/−.

P. aeruginosa (9027) = test: as above; type: cell-based, Pseudomonas aeruginosa; details: 24 hours, serial dilution 1.7 fold, 400 ppm max
From the text: as §1, §2
(§7) Bacteria were propagated overnight in a suitable growth medium, which was a Tryptic Soy Broth. Prior to testing, the concentrations of the test organisms were established using a spectrophotometer that can measure optical density. Those bacterial samples were then diluted to about 1E3 to 1E4 CFU/mL. […]
as §6

E. coli (8739) = test: as above; type: cell-based, Escherichia coli; details: 24 hours, serial dilution 1.7 fold
From the text: as §1, §2, §7, §6

S. mutans (25715) = test: as above; type: cell-based, Streptococcus mutans
From the text: as §1, §2, §3, §4, §5, §6

[1] = Critical micelle concentration and minimum surface tension from surface tension versus concentration in water (Wilhelmy plate method); type: physicochemical; details: for critical micelle concentration (CMC) / plateau value of minimum surface tension: in water; for interfacial activity / surfactant properties (in words): judged from CMC and minimum surface tension
From the text: These properties may be measured and described by various methods. One method by which surfactants may be described is by the molecule's critical micelle concentration (CMC). CMC may be defined as the concentration of a surfactant at which micelles form, and above which all additional surfactant is incorporated into micelles.
As surfactant concentration increases, surface tension decreases. Once the surface is completely overlaid with surfactant molecules, micelles begin to form. This point represents the CMC, as well as the minimum surface tension. Further addition of surfactant will not further affect the surface tension. CMC may therefore be measured by observing the change in surface tension as a function of surfactant concentration. One such method for measuring this value is the Wilhemy plate method. A Wilhelmy plate is usually a thin iridium-platinum plate attached to a balance by a wire and placed perpendicularly to the air-liquid interface. The balance is used to measure the force exerted on the plate by wetting. This value is then used to calculate the surface tension (γ) according to Equation 1: […]
wherein I is equal to the wetted perimeter (2w+2d, in which w and d are the plate thickness and width, respectively) and cos θ, the contact angle between the liquid and the plate, is assumed to be 0 in the absence of an extant literature value.
Nuclear magnetic resonance (NMR) spectroscopy was performed on a Bruker 500 MHz spectrometer. The critical micelle concentration (CMC) was determined by the Wilhelmy plate method at 23° C. with a tensiometer (DCAT 11, DataPhysics Instruments GmbH) equipped with a Pt—Ir plate. Dynamic surface tension was determined with a bubble pressure tensiometer (Krüss BP100, Krüss GmbH), at 23° C. Contact angle was determined with the optical contact angle goniometer (OCA 15 Pro, DataPhysics GmbH) equipped with a digital camera.

[2] = 24 hours, serial dilution 1.7 fold, 20 ppm max

| Structure (SMILES) | critical micelle concentration (CMC) ([1]; 23° C.) | plateau value of minimum surface tension ([1]; 23° C.) | interfacial activity / surfactant properties (in words) [1] | further results |
| --- | --- | --- | --- | --- |
| CCCCCCCCCCCCCC[N+](C)(C)Cc1ccccc1.[Cl-] [ADBAC, reference compound] | – | – | – | MIC (S. aureus (6538); [2]): 7 +/− 3 ppm; MIC (P. aeruginosa (9027)): 48 +/− 20 ppm; MIC (E. coli (8739); 20 ppm max): 16 +/− 7 ppm; MIC (S. mutans (25715); [2]): 7 +/− 3 ppm |
| C[N+](C)(CCCCCC(=O)NCCC[Si](O[Si](C)(C)C)(O[Si](C)(C)C)O[Si](C)(C)C)CC(=O)O [Comparative Surfactant, N-(carboxymethyl)-6-((3-(1,1,1,5,5,5-hexamethyl-3-((trimethylsilyl)oxy)trisiloxan-3-yl)propyl)amino)-N,N-dimethyl-6-oxohexan-1-aminium bromide, reference compound] | about 17.28 mmol | about 29.16 mN/m | inferior surfactant properties | – |
| C[N+](C)(CCCCCC(=O)NCCC[Si](O[Si](C)(C)C)(O[Si](C)(C)C)O[Si](C)(C)C)Cc1ccccc1 [Surfactant 1, N-benzyl-6-((3-(1,1,1,5,5,5-hexamethyl-3-((trimethylsilyl)oxy)trisiloxan-3-yl)propyl)amino)-N,N-dimethyl-6-oxohexan-1-aminium bromide] | – | around 20.67 mN/m | outstanding interfacial activity | critical micelle concentration (CMC) ([1]; pH 8, 23° C.): about 9.883 mmol |
| CCOC(=O)C[N+](C)(C)CCCCCC(=O)NCCC[Si](O[Si](C)(C)C)(O[Si](C)(C)C)O[Si](C)(C)C [Surfactant 2, N-(2-ethoxy-2-oxoethyl)-6-((3-(1,1,1,5,5,5-hexamethyl-3-((trimethylsilyl)oxy)trisiloxan-3-yl)propyl)amino)-N,N-dimethyl-6-oxohexan-1-aminium bromide] | about 0.2171 mmol | around 20.36 mN/m | outstanding interfacial activity | – |
| C=CC[N+](C)(C)CCCCCC(=O)NCCC[Si](O[Si](C)(C)C)(O[Si](C)(C)C)O[Si](C)(C)C [Surfactant 3, N-allyl-6-((3-(1,1,1,5,5,5-hexamethyl-3-((trimethylsilyl)oxy)trisiloxan-3-yl)propyl)amino)-N,N-dimethyl-6-oxohexan-1-aminium iodide] | about 1.3599 mmol | about 20.67 mN/m | outstanding interfacial activity | – |
| C#CC[N+](C)(C)CCCCCC(=O)NCCC[Si](O[Si](C)(C)C)(O[Si](C)(C)C)O[Si](C)(C)C [Surfactant 4, 6-((3-(1,1,1,5,5,5-hexamethyl-3-((trimethylsilyl)oxy)trisiloxan-3-yl)propyl)amino)-N,N-dimethyl-6-oxo-N-(prop-2-yn-1-yl)hexan-1-aminium bromide] | about 0.2419 mmol | about 20.54 mN/m | outstanding interfacial activity | – |
| COCCOCC[N+](C)(C)CCCCCC(=O)NCCC[Si](O[Si](C)(C)C)(O[Si](C)(C)C)O[Si](C)(C)C [Surfactant 5, 6-((3-(1,1,1,5,5,5-hexamethyl-3-((trimethylsilyl)oxy)trisiloxan-3-yl)propyl)amino)-N-(2-(2-methoxyethoxy)ethyl)-N,N-dimethyl-6-oxohexan-1-aminium bromide] | about 0.4622 mmol | about 20.40 mN/m | outstanding interfacial activity | – |
| CCOP(=O)(CCC[N+](C)(C)CCCCCC(=O)NCCC[Si](O[Si](C)(C)C)(O[Si](C)(C)C)O[Si](C)(C)C)OCC [Surfactant 6, N-(3-(diethoxyphosphoryl)propyl)-6-((3-(1,1,1,5,5,5-hexamethyl-3-((trimethylsilyl)oxy)trisiloxan-3-yl)propyl)amino)-N,N-dimethyl-6-oxohexan-1-aminium bromide] | about 0.3989 mmol | about 20.48 mN/m | outstanding interfacial activity | MIC (S. aureus (6538); Staphylococcus aureus, 24 h): 138 µg/mL; MIC (S. mutans (25715); Streptococcus mutans, 24 h): 81 µg/mL |
| C[N+](C)(CCCO)CCCCCC(=O)NCCC[Si](O[Si](C)(C)C)(O[Si](C)(C)C)O[Si](C)(C)C [Surfactant 7, 6-((3-(1,1,1,5,5,5-hexamethyl-3-((trimethylsilyl)oxy)trisiloxan-3-yl)propyl)amino)-N-(3-hydroxypropyl)-N,N-dimethyl-6-oxohexan-1-aminium iodide] | about 0.4568 mmol | about 20.61 mN/m | outstanding interfacial activity | MIC (P. aeruginosa (9027); Pseudomonas aeruginosa, read-out: MIC): 81 µg/mL; MIC (E. coli (8739); Escherichia coli, 400 ppm max, read-out: MIC): 81 µg/mL |
| C[N+](C)(CCO)CCCCCC(=O)NCCC[Si](O[Si](C)(C)C)(O[Si](C)(C)C)O[Si](C)(C)C [Surfactant 8, 6-((3-(1,1,1,5,5,5-hexamethyl-3-((trimethylsilyl)oxy)trisiloxan-3-yl)propyl)amino)-N-(2-hydroxyethyl)-N,N-dimethyl-6-oxohexan-1-aminium iodide] | about 0.9986 mmol | about 20.41 mN/m | outstanding interfacial activity | – |
| C[N+](C)(CCCCCC(=O)O)CCCCCC(=O)NCCC[Si](O[Si](C)(C)C)(O[Si](C)(C)C)O[Si](C)(C)C [Surfactant 9, N-(5-carboxypentyl)-6-((3-(1,1,1,5,5,5-hexamethyl-3-((trimethylsilyl)oxy)trisiloxan-3-yl)propyl)amino)-N,N-dimethyl-6-oxohexan-1-aminium bromide] | about 0.2237 mmol | about 20.52 mN/m | excellent interfacial activity | MIC (S. aureus (6538); Staphylococcus aureus, 24 hours, serial dilution 1.7 fold, 400 ppm max, read-out: MIC): 138 µg/mL; MIC (S. mutans (25715); Streptococcus mutans, 24 hours, serial dilution 1.7 fold, 400 ppm max, read-out: MIC): 81 µg/mL |
| C[N+](C)(CCCCCC(=O)NCCC[Si](O[Si](C)(C)C)(O[Si](C)(C)C)O[Si](C)(C)C)CCC[N+](C)(C)CCCCCC(=O)NCCC[Si](O[Si](C)(C)C)(O[Si](C)(C)C)O[Si](C)(C)C [Surfactant 10, N^1,N^3-bis(6-((3-(1,1,1,5,5,5-hexamethyl-3-((trimethylsilyl)oxy)trisiloxan-3-yl)propyl)amino)-6-oxohexyl)-N^1,N^1,N^3,N^3-tetramethylpropane-1,3-diaminium dibromide] | about 0.0631 mmol | about 22.12 mN/m | has interfacial activity | – |
